Assay results reported in ChEMBL document CHEMBL1201862, “PubChem BioAssay data set” (2004).
Calls of active or inactive are those of the source.

Tests used:
[1] = target: Transthyretin (Homo sapiens, UniProt P02766); test: Luminescence-based cell-based high throughput dose response assay to identify activators of Transthyretin (TTR) transcription.; assay type: functional
[2] = target: G-protein coupled receptor 183 (Homo sapiens, UniProt P32249); test: SAR confirmation of small molecule antagonists of the EBI2 receptor via a luminescent beta-arrestin assa.; assay type: functional
[3] = IC50 of Artemis nuclease activity blockers – biochemical, fluorescence intensity, dose response (AID 720701); assay type: functional;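 note: Artemis endonuclease enzyme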
[4] = viability of PTEN-deleted HCT116 cells – cell-based, HCT116 PTEN knockout, dose response (AID 1047); assay type: functional;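 note: HCT116 colon tumor cells with PTEN knocked out; cells exposed to compound for 60 hours before readout; potency for loss of cell viability measured by luminescence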
[5] = viability of HCT116 lacking mutant beta-catenin – cell-based, human colon tumor, dose response (AID 1045); assay type: functional;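 note: HCT116 colon tumor cells with beta catenin knocked out; cells exposed to compound for 60 hours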
[6] = target: T1, X-box-binding protein 1 (Homo sapiens, UniProt P17861); assay type: functional, Cricetulus griseus;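 note: confirmatory dose-response counter-screen serving a CHOP assay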
T1 sequence (P17861 whole entry): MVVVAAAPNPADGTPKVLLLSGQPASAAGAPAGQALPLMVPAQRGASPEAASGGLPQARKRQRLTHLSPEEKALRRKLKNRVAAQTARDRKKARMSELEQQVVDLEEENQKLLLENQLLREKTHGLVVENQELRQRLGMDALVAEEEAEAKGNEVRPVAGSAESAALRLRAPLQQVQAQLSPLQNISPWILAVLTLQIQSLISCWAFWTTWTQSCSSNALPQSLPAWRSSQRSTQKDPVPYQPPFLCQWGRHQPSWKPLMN

[7] = Plasmodium falciparum Dd2 Sybr green parasite growth Measured in Cell-Based and Microorganism Combination System Using Plate Reader - 2153-01_Inhibitor_Dose_DryPowder_Activity_Set3.; assay type: functional
[8] = Dd2 parasite growth inhibition in erythrocytes – SYBR Green, dry powder samples, set 9, dose response (AID 1159568); assay type: functional, cell-based
[9] = growth inhibition of PfATP4-mutant resistant parasites – NITD609-resistant line, SYBR Green, dry powder, dose response (AID 1159571); assay type: functional, cell-based;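 note: parasites synchronized at ring stage by sorbitol before testing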
[10] = P. falciparum Dd2 growth inhibitors, dose response, SYBR Green, cherry-picked samples (AID 1159567); assay type: functional, cell-based
[11] = growth inhibition of yeast DHODH-expressing 3D7 parasites – SYBR Green, dry powder samples, dose response (AID 1159570); assay type: functional, cell-based;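 note: parasite growth measured after 72 hours of compound exposure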
[12] = Dd2 malaria parasite growth inhibition potency – SYBR Green, dry powder samples, dose response (AID 1159566); assay type: functional, cell-based;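 note: potency for growth inhibition with lower SYBR green DNA signal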
[13] = target: Genome polyprotein (Hepatitis C virus, UniProt Q2Q167); test: disruption of hepatitis C core self-association – biochemical, TR-FRET, dose response (AID 2159); parameters: species or system Hepacivirus hominis;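 note: blocks dimerization of HCV core protein measured by TR-FRET between tagged core106 pairs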
[14] = L6 myocyte viability loss – cell-based, plate reader, cherry-pick, cytotoxicity control, dose response (AID 651896); assay type: functional
[15] = Trypanosoma cruzi replication inhibitors in host cells – cell-based, plate reader, dry powder samples, dose response (AID 651845); assay type: functional
[16] = host muscle cell viability loss – plate reader, dry powder, counter-screen for T. cruzi inhibitor project, dose response (AID 651895); assay type: functional, cell-based
[17] = T. cruzi growth inhibition in host cells, dose response, cell-based, plate reader, dry powder, set 2 (AID 652275); assay type: functional
[18] = anti-trypanosomal activity in BESM host cells – imaging, CA-I/72 strain, bovine embryo skeletal muscle, dry powder, dose response (AID 651885); assay type: functional, cell-based
[19] = antimalarial activity against erythrocytic parasites – NF54 strain, plate reader, dry powder, dose response (AID 651889); assay type: functional, cell-based
[20] = antileishmanial activity on axenic amastigotes – plate reader, cherry pick, dose response (AID 651891); assay type: functional, cell-based; details: Leishmania donovani
[21] = intracellular Chagas parasite inhibition in myoblasts – Tulahuen strain, L-6 host cells, dry powder, dose response (AID 651890); assay type: functional, cell-based
[22] = intracellular Trypanosoma cruzi inhibitors in host cells – cell-based, plate reader, cherry-pick samples, set 3, dose response (AID 651818); assay type: functional;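 note: compounds incubated with infected cells for about four days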
[23] = antileishmanial activity on axenic amastigotes – plate reader, dry powder, dose response (AID 651892); assay type: functional, cell-based
[24] = African trypanosome bloodstream form growth inhibition – STIB900 strain, plate reader, dry powder, dose response (AID 651894); assay type: functional, cell-based
[25] = African trypanosome bloodstream form growth inhibition – STIB900 strain, plate reader, cherry pick, dose response (AID 651893); assay type: functional, cell-based, Trypanosoma brucei rhodesiense; details: Trypanosoma brucei
[26] = Luminescence Cell-Based Dose Confirmation HTS to Identify Inhibitors of Platelet Dense Granule Release. [Related pubchem assays: 1663 (Primary HTS), 1678 (Summary of Project)]; assay type: functional
[27] = Fluorescence Cell-Based Dose Response to Identify Inhibitors of Thrombin Receptor-Activating Peptide SFLLRN-Mediated P-Selectin Induction on Platelets. [Related pubchem assays: 1663 (Primary HTS), 1889 (retest at dose ), 1891 (counterscreen), 1678 (Project Summary)]; assay type: functional
[28] = target: Luciferin 4-monooxygenase (Photinus pyralis, UniProt P08659); test: inhibition of purified Photinus pyralis luciferase – biochemical, luminescence, dose response (AID 1891)
Luciferin 4-monooxygenase, sequence (P08659 whole entry): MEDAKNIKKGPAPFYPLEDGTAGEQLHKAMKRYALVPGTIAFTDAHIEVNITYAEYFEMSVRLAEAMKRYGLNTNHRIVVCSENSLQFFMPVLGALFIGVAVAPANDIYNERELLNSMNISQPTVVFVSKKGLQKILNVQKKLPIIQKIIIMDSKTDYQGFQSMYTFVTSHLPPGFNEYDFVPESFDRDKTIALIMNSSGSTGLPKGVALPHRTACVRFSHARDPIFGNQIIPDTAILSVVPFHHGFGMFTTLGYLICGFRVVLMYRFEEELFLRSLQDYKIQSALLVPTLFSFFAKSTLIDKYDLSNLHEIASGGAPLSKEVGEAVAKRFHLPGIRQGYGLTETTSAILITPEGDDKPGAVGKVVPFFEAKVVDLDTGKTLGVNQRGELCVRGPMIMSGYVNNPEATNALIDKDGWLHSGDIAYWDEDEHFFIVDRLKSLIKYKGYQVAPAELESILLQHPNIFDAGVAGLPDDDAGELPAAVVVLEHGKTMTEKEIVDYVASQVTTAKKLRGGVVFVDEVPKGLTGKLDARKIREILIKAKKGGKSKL

Genome polyprotein, sequence (Q2Q167 whole entry): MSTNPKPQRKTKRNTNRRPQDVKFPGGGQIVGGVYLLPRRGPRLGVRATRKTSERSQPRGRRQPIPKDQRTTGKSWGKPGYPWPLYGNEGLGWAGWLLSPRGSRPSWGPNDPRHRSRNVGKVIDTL
G-protein coupled receptor 183, sequence (P32249 whole entry): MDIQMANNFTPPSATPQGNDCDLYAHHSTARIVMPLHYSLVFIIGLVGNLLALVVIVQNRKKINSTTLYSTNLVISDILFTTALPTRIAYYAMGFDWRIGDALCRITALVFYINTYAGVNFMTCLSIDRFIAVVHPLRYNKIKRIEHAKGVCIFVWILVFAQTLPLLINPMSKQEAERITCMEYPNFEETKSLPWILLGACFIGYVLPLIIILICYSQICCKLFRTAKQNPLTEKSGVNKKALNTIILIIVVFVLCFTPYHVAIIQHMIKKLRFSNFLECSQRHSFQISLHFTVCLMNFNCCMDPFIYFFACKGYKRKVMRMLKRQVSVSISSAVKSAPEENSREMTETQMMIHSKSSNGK

For CC(Oc1ccccc1)C(=O)N1CCN=C1SCc1ccccc1 (stereo not drawn), the EC50 [1] was > 167000 nM (inactive).

For O=C(CCc1ccc(F)cc1)N1CCN(S(=O)(=O)/C=C/c2ccccc2)CC1, the IC50 [2] was 113 nM (active).

For O=C(c1ccc2c3c(cccc13)C(=O)N(O)C2=O)N1CCCCC1, the IC50 [3] was 11500 nM (active), the EC50 [4] was 11000 nM (active) and the EC50 [5] was 13700 nM (active). For the same compound, the “Absolute IC50 (XBP1)” value [6] was 10000 nM.

With CO[C@@H]1CN(C)C(=O)c2ccc(NC(=O)Nc3ccccc3F)cc2OC[C@@H](C)N(Cc2ccccc2F)C[C@H]1C the AC50 [7] was 586 nM (active), the AC50 [8] was 674 nM (active) and the AC50 [9] was 122 nM (active). The AC50 [10] was 356 nM (active), the AC50 [11] was 948 nM (active) and the AC50 [12] was 44.9 nM (active).

With Cc1ccc(OCC(=O)Nc2nnc(S(=O)(=O)N3CCC(C)CC3)s2)cc1 the IC50 [13] was > 49800 nM (not active).

For C[C@H]1CN([C@@H](C)CO)C(=O)c2cccc(NC(=O)c3ccncc3)c2O[C@@H]1CN(C)Cc1ccc(Oc2ccccc2)cc1, the IC50 [14] was 14400 nM (active), the AC50 [15] was 0.457 nM (active) and the IC50 [16] was 17100 nM (inactive). The AC50 [17] was 4.42 nM (active), the IC50 [18] was 0.66 nM (active) and the IC50 [19] was 504 nM (inactive). For the same compound, the IC50 [20] was 13200 nM (inactive), the IC50 [21] was 29.5 nM (active) and the AC50 [22] was 80 nM (active). The IC50 [23] was 8400 nM (inactive), the IC50 [24] was 1500 nM (inactive) and the IC50 [25] was 5780 nM (inactive).

For COc1cc2c(cc1OC)C(/C=C(\O)c1ccc(NC(C)=O)cc1)=NCC2, the EC50 [26] was 3330 nM (active), the EC50 [27] was < 300 nM (active) and the EC50 [28] was > 112000 nM (not active).
